Data taken from ChEMBL document CHEMBL2074045, “Up-regulation of P-glycoprotein expression in rat liver cells by acute doxorubicin treatment” (Eur J Biochem, 1997).

Key:
[1] = target: Multidrug resistance protein 1a (Rattus norvegicus) (UniProt Q6PSM0); assay: TP_TRANSPORTER: Western in vitro, nonparenchymal ral liver epithelial cells; format: functional, tissue-based; details: Epithelial cell
[2] = target: ATP-dependent translocase ABCB1 (Rattus norvegicus, UniProt P43245); assay: TP_TRANSPORTER: Northern blot in vitro, nonparenchymal ral liver epithelial cells; format: functional; details: epithelial cell
Sequence of ATP-dependent translocase ABCB1 (P43245 whole entry): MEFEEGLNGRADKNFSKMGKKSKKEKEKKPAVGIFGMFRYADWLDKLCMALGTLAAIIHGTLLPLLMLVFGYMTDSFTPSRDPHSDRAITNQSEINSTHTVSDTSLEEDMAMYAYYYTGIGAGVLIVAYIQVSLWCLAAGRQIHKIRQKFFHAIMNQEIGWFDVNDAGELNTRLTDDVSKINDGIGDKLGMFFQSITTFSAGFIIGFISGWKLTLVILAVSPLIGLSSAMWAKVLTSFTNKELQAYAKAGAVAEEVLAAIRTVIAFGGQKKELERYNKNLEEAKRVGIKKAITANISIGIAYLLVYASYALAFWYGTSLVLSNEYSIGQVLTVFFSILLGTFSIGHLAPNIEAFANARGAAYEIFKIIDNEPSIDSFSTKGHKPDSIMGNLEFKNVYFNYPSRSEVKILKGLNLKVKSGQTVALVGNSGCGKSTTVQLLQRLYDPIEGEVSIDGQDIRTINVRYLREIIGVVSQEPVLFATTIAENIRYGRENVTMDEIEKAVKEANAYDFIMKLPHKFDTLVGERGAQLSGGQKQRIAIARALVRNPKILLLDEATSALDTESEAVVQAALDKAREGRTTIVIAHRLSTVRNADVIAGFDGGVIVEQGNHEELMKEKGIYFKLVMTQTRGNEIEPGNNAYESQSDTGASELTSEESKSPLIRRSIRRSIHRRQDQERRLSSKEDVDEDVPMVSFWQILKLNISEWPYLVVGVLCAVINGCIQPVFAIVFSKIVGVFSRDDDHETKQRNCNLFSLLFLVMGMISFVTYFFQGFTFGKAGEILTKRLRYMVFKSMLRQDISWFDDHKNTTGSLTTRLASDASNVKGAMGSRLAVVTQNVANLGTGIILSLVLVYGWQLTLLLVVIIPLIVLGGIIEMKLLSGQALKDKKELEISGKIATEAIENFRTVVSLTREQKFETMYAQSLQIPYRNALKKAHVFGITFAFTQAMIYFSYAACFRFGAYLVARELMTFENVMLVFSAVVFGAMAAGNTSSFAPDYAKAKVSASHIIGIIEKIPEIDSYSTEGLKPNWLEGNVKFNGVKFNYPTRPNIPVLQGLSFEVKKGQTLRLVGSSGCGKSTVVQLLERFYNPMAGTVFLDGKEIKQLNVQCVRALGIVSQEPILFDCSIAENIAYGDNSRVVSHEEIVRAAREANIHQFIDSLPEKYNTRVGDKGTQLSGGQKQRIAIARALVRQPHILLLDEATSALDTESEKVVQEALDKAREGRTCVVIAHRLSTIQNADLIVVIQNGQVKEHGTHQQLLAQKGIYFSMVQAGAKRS

Sequence of Multidrug resistance protein 1a (Rattus norvegicus) (Q6PSM0 as listed by the source): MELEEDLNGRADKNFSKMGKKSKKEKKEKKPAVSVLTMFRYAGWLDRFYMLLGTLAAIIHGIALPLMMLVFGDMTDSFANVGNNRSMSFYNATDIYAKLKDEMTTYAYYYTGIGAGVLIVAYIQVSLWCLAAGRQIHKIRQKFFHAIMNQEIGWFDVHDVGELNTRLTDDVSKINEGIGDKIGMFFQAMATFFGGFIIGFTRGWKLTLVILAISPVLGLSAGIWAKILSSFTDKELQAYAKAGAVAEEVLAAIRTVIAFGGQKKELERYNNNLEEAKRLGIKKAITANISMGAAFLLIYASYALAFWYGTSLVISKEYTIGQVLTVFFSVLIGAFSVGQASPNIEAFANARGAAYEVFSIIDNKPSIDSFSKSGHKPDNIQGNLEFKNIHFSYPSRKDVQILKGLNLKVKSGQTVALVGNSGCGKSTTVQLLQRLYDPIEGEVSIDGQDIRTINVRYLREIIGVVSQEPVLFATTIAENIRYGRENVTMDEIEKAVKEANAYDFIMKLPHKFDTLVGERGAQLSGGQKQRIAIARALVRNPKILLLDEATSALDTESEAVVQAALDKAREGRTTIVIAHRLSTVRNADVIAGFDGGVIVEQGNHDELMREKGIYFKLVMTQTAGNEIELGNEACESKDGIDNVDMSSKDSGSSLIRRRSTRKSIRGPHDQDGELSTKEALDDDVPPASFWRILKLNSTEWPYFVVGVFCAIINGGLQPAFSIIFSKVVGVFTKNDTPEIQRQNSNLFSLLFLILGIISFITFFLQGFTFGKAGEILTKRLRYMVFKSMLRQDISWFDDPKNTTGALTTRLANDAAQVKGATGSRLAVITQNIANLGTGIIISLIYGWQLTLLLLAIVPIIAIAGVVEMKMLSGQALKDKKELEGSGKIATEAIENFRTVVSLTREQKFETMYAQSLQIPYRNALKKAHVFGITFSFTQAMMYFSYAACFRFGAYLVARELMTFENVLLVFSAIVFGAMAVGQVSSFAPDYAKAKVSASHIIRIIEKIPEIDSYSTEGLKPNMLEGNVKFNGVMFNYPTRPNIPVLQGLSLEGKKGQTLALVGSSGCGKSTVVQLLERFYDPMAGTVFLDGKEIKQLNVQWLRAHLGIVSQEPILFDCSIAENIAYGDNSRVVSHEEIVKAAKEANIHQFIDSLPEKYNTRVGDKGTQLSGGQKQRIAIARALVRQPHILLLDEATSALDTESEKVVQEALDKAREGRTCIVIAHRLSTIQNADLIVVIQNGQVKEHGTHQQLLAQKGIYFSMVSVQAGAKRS

Structure (SMILES): COc1cccc2c1C(=O)c1c(O)c3c(c(O)c1C2=O)C[C@@](O)(C(=O)CO)C[C@@H]3O[C@H]1C[C@H](N)[C@H](O)[C@H](C)O1 [DOXORUBICIN]
- Activity [1]: inducer [+]
- Activity [2]: inducer [+]
